Data reported in ChEMBL document CHEMBL3045495, “Lipophilic 2-(4-chlorophenyl)-4-thiazolyl-1,4-dihydropyridines: synthesis, calcium channel antagonist activity, and protection against pentylenetetrazole-induced seizure” (Med Chem Res, 2009).

Tests used:
[1] = test system: Mus musculus; assay: Anticonvulsant activity against pentylenetetrazole-induced seizures in Mus musculus NMRI (mouse) assessed as time of maximal effect at 20 mg/kg, ip administered 30 min before PTZ challenge; format: functional; settings: route intraperitoneal
[2] = test system: Mus musculus; assay: Anticonvulsant activity against pentylenetetrazole-induced seizures in Mus musculus NMRI (mouse) assessed as time of maximal effect at 10 mg/kg, ip administered 30 min before PTZ challenge (reference value: 24.86 +/- 0.96 min); format: functional; settings: route intraperitoneal
[3] = test system: Mus musculus; assay: Anticonvulsant activity against pentylenetetrazole-induced seizures in Mus musculus NMRI (mouse) assessed as time of maximal effect at 5 mg/kg, ip administered 30 min before PTZ challenge; format: functional; settings: route intraperitoneal
[4] = biological target: Voltage-dependent L-type calcium channel subunit alpha-1C (Cavia porcellus, UniProt O35505); assay: Antagonist activity at Calcium channel in Cavia porcellus (guinea pig) ileal smooth muscle assessed as inhibition of 40 mM KCl-induced contraction compound pretreated for 15 min before KCl treatment
Chain of Voltage-dependent L-type calcium channel subunit alpha-1C (O35505 whole entry): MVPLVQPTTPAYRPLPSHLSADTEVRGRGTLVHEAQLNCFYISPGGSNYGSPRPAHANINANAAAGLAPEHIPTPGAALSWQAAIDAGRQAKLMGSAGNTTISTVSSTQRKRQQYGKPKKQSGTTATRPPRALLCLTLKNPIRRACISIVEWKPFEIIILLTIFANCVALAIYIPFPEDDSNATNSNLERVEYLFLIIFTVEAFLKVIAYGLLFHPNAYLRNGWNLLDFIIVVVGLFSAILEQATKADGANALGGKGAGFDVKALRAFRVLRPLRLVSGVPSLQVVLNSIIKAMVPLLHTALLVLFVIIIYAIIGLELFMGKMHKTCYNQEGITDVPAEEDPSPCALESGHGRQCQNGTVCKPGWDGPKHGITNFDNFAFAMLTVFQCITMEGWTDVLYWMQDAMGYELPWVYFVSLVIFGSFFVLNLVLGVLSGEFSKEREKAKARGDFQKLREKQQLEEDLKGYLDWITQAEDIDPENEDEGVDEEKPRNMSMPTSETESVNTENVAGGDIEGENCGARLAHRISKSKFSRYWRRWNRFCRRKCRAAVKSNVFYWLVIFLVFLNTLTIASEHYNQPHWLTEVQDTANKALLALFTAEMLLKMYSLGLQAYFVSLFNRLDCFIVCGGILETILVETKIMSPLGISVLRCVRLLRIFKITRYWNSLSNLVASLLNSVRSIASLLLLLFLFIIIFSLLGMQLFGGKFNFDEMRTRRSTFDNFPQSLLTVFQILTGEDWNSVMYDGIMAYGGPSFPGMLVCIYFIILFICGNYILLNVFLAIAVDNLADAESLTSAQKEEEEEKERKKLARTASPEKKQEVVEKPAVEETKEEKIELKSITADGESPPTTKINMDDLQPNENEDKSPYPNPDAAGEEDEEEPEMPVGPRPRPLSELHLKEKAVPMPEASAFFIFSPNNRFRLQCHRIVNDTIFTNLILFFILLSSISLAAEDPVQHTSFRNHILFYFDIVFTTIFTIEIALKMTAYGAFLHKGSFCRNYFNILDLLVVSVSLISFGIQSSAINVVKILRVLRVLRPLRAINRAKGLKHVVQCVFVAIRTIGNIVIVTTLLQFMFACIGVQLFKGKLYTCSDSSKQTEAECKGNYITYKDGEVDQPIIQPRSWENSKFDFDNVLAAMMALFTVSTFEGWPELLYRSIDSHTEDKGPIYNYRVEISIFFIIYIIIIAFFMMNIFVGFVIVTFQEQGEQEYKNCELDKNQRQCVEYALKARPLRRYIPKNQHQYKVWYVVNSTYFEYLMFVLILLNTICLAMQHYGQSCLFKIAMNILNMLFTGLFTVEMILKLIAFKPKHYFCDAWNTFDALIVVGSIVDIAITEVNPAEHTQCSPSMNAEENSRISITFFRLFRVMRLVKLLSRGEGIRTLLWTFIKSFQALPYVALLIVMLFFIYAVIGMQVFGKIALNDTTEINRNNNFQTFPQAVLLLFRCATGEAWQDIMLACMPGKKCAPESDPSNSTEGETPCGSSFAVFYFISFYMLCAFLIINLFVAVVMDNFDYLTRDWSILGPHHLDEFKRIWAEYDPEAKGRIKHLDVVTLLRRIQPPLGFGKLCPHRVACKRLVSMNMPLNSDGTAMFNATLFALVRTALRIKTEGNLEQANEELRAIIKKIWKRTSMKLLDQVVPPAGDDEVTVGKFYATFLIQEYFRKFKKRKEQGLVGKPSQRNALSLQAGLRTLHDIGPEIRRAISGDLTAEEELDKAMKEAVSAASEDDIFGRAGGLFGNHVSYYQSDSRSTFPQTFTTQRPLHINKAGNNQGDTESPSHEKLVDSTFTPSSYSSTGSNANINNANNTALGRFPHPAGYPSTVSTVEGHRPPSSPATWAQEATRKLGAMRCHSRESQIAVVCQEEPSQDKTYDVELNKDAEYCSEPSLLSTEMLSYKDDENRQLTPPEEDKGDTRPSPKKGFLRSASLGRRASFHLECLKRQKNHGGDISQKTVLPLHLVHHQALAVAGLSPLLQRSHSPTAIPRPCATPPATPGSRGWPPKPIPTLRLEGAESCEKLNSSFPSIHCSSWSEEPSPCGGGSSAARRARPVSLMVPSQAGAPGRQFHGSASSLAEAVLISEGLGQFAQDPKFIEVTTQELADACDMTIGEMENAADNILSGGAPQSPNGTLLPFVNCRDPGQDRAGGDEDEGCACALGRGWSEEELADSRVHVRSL

[5] = test system: Mus musculus; assay: Anticonvulsant activity against pentylenetetrazole-induced seizures in Mus musculus NMRI (mouse) assessed as time of maximal effect at 20 mg/kg, ip administered 15 min before PTZ challenge; format: functional; settings: route intraperitoneal
[6] = test system: Mus musculus; assay: Anticonvulsant activity against pentylenetetrazole-induced seizures in Mus musculus NMRI (mouse) assessed as time of maximal effect at 10 mg/kg, ip administered 15 min before PTZ challenge (reference value: 24.86 +/- 0.96 min); format: functional; settings: route intraperitoneal
[7] = test system: Mus musculus; assay: Anticonvulsant activity against pentylenetetrazole-induced seizures in Mus musculus NMRI (mouse) assessed as time of maximal effect at 5 mg/kg, ip administered 15 min before PTZ challenge; format: functional; settings: route intraperitoneal
[8] = test system: Mus musculus; assay: Anticonvulsant activity against pentylenetetrazole-induced seizures in Mus musculus NMRI (mouse) assessed as time of maximal effect at 20 mg/kg, ip administered 60 min before PTZ challenge; format: functional; settings: route intraperitoneal
[9] = test system: Mus musculus; assay: Anticonvulsant activity against pentylenetetrazole-induced seizures in Mus musculus NMRI (mouse) assessed as time of maximal effect at 60 mg/kg, ip administered 15 min before PTZ challenge (reference value: 24.86 +/- 0.96 min); format: functional; settings: route intraperitoneal
[10] = test system: Mus musculus; assay: Anticonvulsant activity against pentylenetetrazole-induced seizures in Mus musculus NMRI (mouse) assessed as time of maximal effect at 5 mg/kg, ip administered 60 min before PTZ challenge; format: functional; settings: route intraperitoneal

SMILES | Time [1] | Time [2] | Time [3] | IC50 [4] | other results
COC(=O)C1=C(C)NC(C)=C(C(=O)OC)C1c1csc(-c2ccc(Cl)cc2)n1 | 44.3 min | 40.94 min | 39.05 min | 4.43 µM | 
CCOC(=O)C1=C(C)NC(C)=C(C(=O)OCC)C1c1csc(-c2ccc(Cl)cc2)n1 | 39.07 min | 32.64 min | 27.76 min | 3.65 µM | 
CCCOC(=O)C1=C(C)NC(C)=C(C(=O)OCCC)C1c1csc(-c2ccc(Cl)cc2)n1 | 42.05 min | 36.26 min | 34.75 min | 4.8 µM | 
CC1=C(C(=O)OC(C)C)C(c2csc(-c3ccc(Cl)cc3)n2)C(C(=O)OC(C)C)=C(C)N1 |  |  |  | 37.2 µM | 
CC1=C(C(=O)OCC(C)C)C(c2csc(-c3ccc(Cl)cc3)n2)C(C(=O)OCC(C)C)=C(C)N1 | 47.62 min | 39.32 min | 37.5 min | 24.9 µM | 
CC1=C(C(=O)OC(C)(C)C)C(c2csc(-c3ccc(Cl)cc3)n2)C(C(=O)OC(C)(C)C)=C(C)N1 |  |  |  | 21 µM | 
CC1=C(C(=O)OC2CCCC2)C(c2csc(-c3ccc(Cl)cc3)n2)C(C(=O)OC2CCCC2)=C(C)N1 |  |  |  | 19 µM | 
CC1=C(C(=O)OC2CCCCC2)C(c2csc(-c3ccc(Cl)cc3)n2)C(C(=O)OC2CCCCC2)=C(C)N1 |  |  |  | 11 µM | Time [5]: 37.86 min; Time [6]: 35.59 min; Time [7]: 35.65 min
CC1=C(C(=O)OCc2ccccc2)C(c2csc(-c3ccc(Cl)cc3)n2)C(C(=O)OCc2ccccc2)=C(C)N1 |  |  |  | 11 µM | 
CC1=C(C(=O)OCCc2ccccc2)C(c2csc(-c3ccc(Cl)cc3)n2)C(C(=O)OCCc2ccccc2)=C(C)N1 |  |  |  | 500 µM | 
CC1=C(C(=O)OC(C)c2ccccc2)C(c2csc(-c3ccc(Cl)cc3)n2)C(C(=O)OC(C)c2ccccc2)=C(C)N1 (centres undefined) |  |  |  | 400 µM | 
CCOC(=O)C1=C(C)NC(C)=C(C(=O)OC)C1c1csc(-c2ccc(Cl)cc2)n1 (centres undefined) |  |  |  | 22 µM | 
CCCOC(=O)C1=C(C)NC(C)=C(C(=O)OC)C1c1csc(-c2ccc(Cl)cc2)n1 (centres undefined) | 43.8 min | 37.6 min | 31.7 min | 5.92 µM | 
CCCOC(=O)C1=C(C)NC(C)=C(C(=O)OCC)C1c1csc(-c2ccc(Cl)cc2)n1 (centres undefined) |  |  |  | 4.09 µM | Time [8]: 42.32 min; Time [9]: 37.07 min; Time [10]: 34.5 min
COC(=O)C1=C(C)NC(C)=C(C(=O)OC(C)C)C1c1csc(-c2ccc(Cl)cc2)n1 (centres undefined) |  |  |  | 13.6 µM | 
CCOC(=O)C1=C(C)NC(C)=C(C(=O)OC(C)C)C1c1csc(-c2ccc(Cl)cc2)n1 (centres undefined) | 44.64 min | 35.87 min | 34.2 min | 2.55 µM | 

SMILES | Time [1] | Time [2] | Time [3] | IC50 [4] | other results
COC(=O)C1=C(C)NC(C)=C(C(=O)OCC(C)C)C1c1csc(-c2ccc(Cl)cc2)n1 (centres undefined) |  |  |  | 46.9 µM | 
CCOC(=O)C1=C(C)NC(C)=C(C(=O)OCC(C)C)C1c1csc(-c2ccc(Cl)cc2)n1 (centres undefined) |  |  |  | 15.4 µM | 
COC(=O)C1=C(C)NC(C)=C(C(=O)OC(C)(C)C)C1c1csc(-c2ccc(Cl)cc2)n1 (centres undefined) |  |  |  | 46 µM | 
CCOC(=O)C1=C(C)NC(C)=C(C(=O)OC(C)(C)C)C1c1csc(-c2ccc(Cl)cc2)n1 (centres undefined) |  |  |  | 91 µM | 
COC(=O)C1=C(C)NC(C)=C(C(=O)OC2CCCC2)C1c1csc(-c2ccc(Cl)cc2)n1 (centres undefined) | 42.7 min | 34.42 min | 33.22 min | 7.29 µM | 
CCOC(=O)C1=C(C)NC(C)=C(C(=O)OC2CCCC2)C1c1csc(-c2ccc(Cl)cc2)n1 (centres undefined) | 47.8 min | 38.8 min | 39.6 min | 8.38 µM | 
COC(=O)C1=C(C)NC(C)=C(C(=O)OC2CCCCC2)C1c1csc(-c2ccc(Cl)cc2)n1 (centres undefined) |  |  |  | 71.9 µM | 
CCOC(=O)C1=C(C)NC(C)=C(C(=O)OC2CCCCC2)C1c1csc(-c2ccc(Cl)cc2)n1 (centres undefined) |  |  |  | 100 µM | 
COC(=O)C1=C(C)NC(C)=C(C(=O)OCc2ccccc2)C1c1csc(-c2ccc(Cl)cc2)n1 (centres undefined) |  |  |  | 64.9 µM | 
CCOC(=O)C1=C(C)NC(C)=C(C(=O)OCc2ccccc2)C1c1csc(-c2ccc(Cl)cc2)n1 (centres undefined) |  |  |  | 3.29 µM | Time [8]: 39.6 min; Time [9]: 37.82 min; Time [10]: 33.87 min
COC(=O)C1=C(C)NC(C)=C(C(=O)OCCc2ccccc2)C1c1csc(-c2ccc(Cl)cc2)n1 (centres undefined) |  |  |  | 10.2 µM | 
CCOC(=O)C1=C(C)NC(C)=C(C(=O)OCCc2ccccc2)C1c1csc(-c2ccc(Cl)cc2)n1 (centres undefined) |  |  |  | 12.1 µM | 
COC(=O)C1=C(C)NC(C)=C(C(=O)OC(C)c2ccccc2)C1c1csc(-c2ccc(Cl)cc2)n1 (centres undefined) | 43.06 min | 42.1 min | 27.82 min | 7.62 µM | 
CCOC(=O)C1=C(C)NC(C)=C(C(=O)OC(C)c2ccccc2)C1c1csc(-c2ccc(Cl)cc2)n1 (centres undefined) |  |  |  | 13.8 µM | 
COC(=O)C1=C(C)NC(C)=C(C(=O)OC)C1c1ccccc1[N+](=O)[O-] [NIFEDIPINE] | 48.3 min | 43.88 min | 40.66 min |  | 
